Article PMC10709440, “High-throughput ligand profile characterization in novel cell lines expressing seven heterologous insect olfactory receptors for the detection of volatile plant biomarkers” (Scientific Reports, 2023)
Where two headings read alike, the source gives them in different places.

Key:
Drosophila OR47a = target: T1, Drosophila OR47a (Drosophila melanogaster, UniProt P81921); assay: Calcium ion fluorescence (GCaMP6) assay, OR47a stable HEK293 cell line; type: cell-based; design: key to DF norm AVERAGE OR47a: VOC ∆F divided by the plate's mean ∆F response to 50 µM VUAA1; conditions: for Average response: OR47a cell line, mean of biological replicates; for DF norm AVERAGE OR47a: threshold 0.05, below shown as 0
T1 construct: expressed in transfected cells
T1 sequence (P81921 1-385): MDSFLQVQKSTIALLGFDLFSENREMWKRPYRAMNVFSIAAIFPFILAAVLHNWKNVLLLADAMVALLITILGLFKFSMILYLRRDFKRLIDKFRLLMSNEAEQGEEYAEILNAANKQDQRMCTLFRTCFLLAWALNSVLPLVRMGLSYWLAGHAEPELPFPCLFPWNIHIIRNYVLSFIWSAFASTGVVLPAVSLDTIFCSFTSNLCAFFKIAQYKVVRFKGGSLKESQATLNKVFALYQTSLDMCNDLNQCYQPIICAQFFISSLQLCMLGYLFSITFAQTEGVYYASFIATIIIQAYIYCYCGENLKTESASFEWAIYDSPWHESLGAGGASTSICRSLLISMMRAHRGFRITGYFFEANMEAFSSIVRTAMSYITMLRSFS
T1 sequence (Q9VNB5 1-486 partner): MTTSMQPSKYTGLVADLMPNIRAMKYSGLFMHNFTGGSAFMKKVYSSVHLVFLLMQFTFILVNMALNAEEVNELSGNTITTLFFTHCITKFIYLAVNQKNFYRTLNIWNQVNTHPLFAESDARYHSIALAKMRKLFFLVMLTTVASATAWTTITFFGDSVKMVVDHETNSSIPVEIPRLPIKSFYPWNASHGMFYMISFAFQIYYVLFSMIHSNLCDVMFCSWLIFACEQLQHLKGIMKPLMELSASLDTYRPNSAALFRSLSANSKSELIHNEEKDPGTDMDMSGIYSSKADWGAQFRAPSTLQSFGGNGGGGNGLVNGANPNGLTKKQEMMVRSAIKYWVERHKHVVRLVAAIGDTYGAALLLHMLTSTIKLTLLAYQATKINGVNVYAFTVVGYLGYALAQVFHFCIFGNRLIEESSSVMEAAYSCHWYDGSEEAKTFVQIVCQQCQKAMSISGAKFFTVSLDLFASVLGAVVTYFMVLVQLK
Outline: (§1)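 Responses are VUAA1-normalized ΔF: each VOC-evoked calcium signal, (FMAX−F0)/F0 over 30 s after injection, divided by the same line's mean 50 µM VUAA1 response. Cells were doxycycline-induced HEK293 with GCaMP6 and the cognate Drosophila OR, in HEPES buffer pH 7.3; ligands tested 0.01–100 μM.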

Drosophila OR71a = target: T2, Drosophila OR71a (Drosophila melanogaster, UniProt Q9VUK5); assay: Calcium ion fluorescence (GCaMP6) assay, OR71a stable HEK293 cell line; type: cell-based; design: key to DF norm AVERAGE OR71a: VOC ∆F divided by the plate's mean ∆F response to 50 µM VUAA1; conditions: for activation at 1 µM / activation at 10 µM / activation at 100 µM: HEK293, read-out: OR71a response (VUAA1-normalized response); for Average response: OR71a cell line, VUAA1-normalized response, mean of biological replicates; for DF norm AVERAGE OR71a: threshold 0.05, below shown as 0
T2 construct: expressed in transfected cells
T2 sequence (Q9VUK5 1-378): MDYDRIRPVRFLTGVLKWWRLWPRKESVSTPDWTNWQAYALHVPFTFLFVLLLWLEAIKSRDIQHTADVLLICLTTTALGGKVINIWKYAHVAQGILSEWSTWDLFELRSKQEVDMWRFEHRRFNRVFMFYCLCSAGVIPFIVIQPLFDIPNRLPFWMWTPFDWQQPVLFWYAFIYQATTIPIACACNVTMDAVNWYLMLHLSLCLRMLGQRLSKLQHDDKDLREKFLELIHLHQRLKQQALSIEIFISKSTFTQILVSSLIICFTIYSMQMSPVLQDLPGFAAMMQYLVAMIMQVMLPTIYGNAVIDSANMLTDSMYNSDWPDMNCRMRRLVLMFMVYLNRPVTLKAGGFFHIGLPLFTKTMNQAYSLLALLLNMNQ
T2 sequence (Q9VNB5 1-486 partner): T1 sequence (Q9VNB5 1-486 partner)
Outline: as §1

[1] = HEK293, read-out: OR47a response (VUAA1-normalized response)
[2] = ligand concentration 1 (unit not given)
[3] = ligand concentration 10 (unit not given)
[4] = ligand concentration 100 (unit not given)
[5] = HEK293, read-out: OR47a Average response (VUAA1-normalized)

| Compound | activation at 1 µM (Drosophila OR47a; [1]) | activation at 10 µM (Drosophila OR47a; [1]) | activation at 100 µM (Drosophila OR47a; [1]) | Average response (Drosophila OR47a; odorant cc. 1 µM) | Average response (Drosophila OR47a; odorant cc. 10 µM) | Average response (Drosophila OR47a; odorant cc. 100 µM) | DF norm AVERAGE OR47a (Drosophila OR47a; [2]) | DF norm AVERAGE OR47a (Drosophila OR47a; [3]) | DF norm AVERAGE OR47a (Drosophila OR47a; [4]) | activation at 1 µM (Drosophila OR71a) | activation at 10 µM (Drosophila OR71a) | activation at 100 µM (Drosophila OR71a) | Average response (Drosophila OR71a; cc. 1 µM) | Average response (Drosophila OR71a; cc. 10 µM) | Average response (Drosophila OR71a; cc. 100 µM) | DF norm AVERAGE OR71a (Drosophila OR71a; [2]) | DF norm AVERAGE OR71a (Drosophila OR71a; [3]) | DF norm AVERAGE OR71a (Drosophila OR71a; [4]) | further results |
| --- | --- | --- | --- | --- | --- | --- | --- | --- | --- | --- | --- | --- | --- | --- | --- | --- | --- | --- | --- |
| CCOC(=O)CC [ethyl propionate] | 0% | 0% | 0% | 0.00 | 0.0134 | 0.0175 | 0 | 0 | 0 | 0% | 0% | 0% | 0.0185 | 0.00 | 0.00 | 0 | 0 | 0 |  |
| CCc1ccccc1 [ethylbenzene] | 0% | 0% | 0% | 0.0189 | 0.0233 | 0.00 | 0 | 0 | 0 | 0% | 0% | 0% | 0.023 | 0.0127 | 0.0277 | 0 | 0 | 0 |  |
| C=CCc1ccc(O)c(OC)c1 [eugenol] | 0% | 0% | 0% | 0.00 | 0.0283 | 0.0436 | 0 | 0 | 0 | 0% | 0% | 0% | 0.00 | 0.0465 | 0.0247 | 0 | 0 | 0 |  |
| CC(=O)OCC(C)C [isobutyl acetate] | 19% | 15% | 65% | 0.19 | 0.15 | 0.65 | 0.1884 | 0.1518 | 0.646 | 0% | 0% | 0% | 0.038 | 0.0316 | 0.00 | 0 | 0 | 0 | activation at 1 µM (Drosophila OR47a; [5]): 19%; activation at 10 µM (Drosophila OR47a; [5]): 15%; activation at 100 µM (Drosophila OR47a; [5]): 65% |
